In patent US8846863B2, “Heat stable protein ingredients” (University of Tennessee Research Foundation, priority 2010, dated 2014):

Experiment: Thymol solubility / dispersion in deionized water
Assay type: physicochemical
Details: suspended at […] in deionized water

For Cc1ccc(C(C)C)c(O)c1 [thymol, 2-Isopropyl-5-methylphenol], the Appearance of suspension was “showed insoluble particulates”.
